The source of these data is patent US20230048888A1, “USE OF TRIAZOLOTRIAZINE DERIVATIVE IN TREATMENT OF DISEASES” (ZHEJIANG VIMGREEN PHARMACEUTICALS, LTD., priority 2019, published 2023).

The structures appear in SMILES notation.

The nature of data set [1]: Pharmacokinetics of Compounds 27, 16, 14 and 22 in SD rats. It counts as in vivo. The note with it: for AUC(0-t) / Cmax / half-life / clearance: Sprague-Dawley, rat, in vivo; for clearance: read-out: Cl—pred (converted). The text has this: WinNonlin® 6.4 was used as the calculation software for PK parameters.
A short description of data set [2]: Pharmacokinetics of test compounds in SD rats (15.2; IV and PO, mixed administration). It is filed as in vivo. The note with it: male, Sprague-Dawley, rat, plasma; SD rats, PO, 2 mg/kg, mixed administration (6 compounds per group). As to the method: Administration dose: the compounds in this group were all administered in a mixed way, with 6 compounds in each group for mixed PO administration.
Blood was collected based on the blood collection points in the test protocol. 50 μL of plasma sample was added with acetonitrile (containing 5 ng/mL Verapamil) being 3 folds of the volume thereof; the resulting mixture was vortexed for 30 s, and then centrifuged for 15 min at 15,000 rpm at 4° C.; and 10μ L of supernatant was taken for LC-MS/MS analysis.
For each compound, 3 male SD rats weighing 200-220 g were fasted for one night before dosage, but had access to water.
Orally intragastric administration: before intragastric administration and at 0.083 h, 0.25 h, 0.5 h, 1 h, 2 h, 4 h, 8 h and 24 h after administration (for Compounds 40, 27, 40 and 47), or at 0.25 h, 0.5 h, 1 h, 4 h, 6 h and 8 h after administration (for Compounds 44 and 48), orbital blood was collected and put in a test tube that was treated with heparin sodium, and after centrifugation, the supernatant plasma was collected for LC-MS/MS analysis.
The plasma samples were processed according to the method for “sample treatment” and then analyzed by LC-MS/MS, accompanied with the standard curve and quality control samples. At a time point when the upper limit of quantification was exceeded, the samples were diluted 10 or 100 folds for analysis. All measured data were collected and processed by Analyst 1.6.3 software, and the data were calculated and processed with Microsoft Excel. With DAS 3.2.8 software, the pharmacokinetic parameters were calculated by the statistical moment method. The pharmacokinetic parameters mainly include Tmax, t1/2, Cmax, AUC(0-t), etc.

The target of data set [3] is T1, adenosine receptors A2A (Homo sapiens, UniProt P29274).
T1 construct: expressed in transfected cells; host or cells: HEK293 (hADORA2A-HEK293)
Description: TR-FRET-based cAMP accumulation assay in hADORA2A-HEK293 cells. The note with it: NECA at EC80, hADORA2A-HEK293, read-out: A2AR activity (IC50). It counts as cell-based. As for the experimental part: The inhibitory effects of the test compounds on the adenosine receptors A2A were evaluated by TR-FRET-based cAMP accumulation assay. The method included, in HEK293 cells (hADORA2A-HEK293) expressing A2AR, the production of cAMP stimulated by NECA and the inhibitory effect of A2A receptor antagonists on cAMP. All cells were cultured in a complete medium at 37° C. in the presence of 5% CO2. After being digested with trypsin, the cells were collected by centrifugation at 200 g for 5 minutes. The cells were resuspended in a fresh complete medium, and then the cell viability was counted by a trypan blue exclusion method. […] The cells were diluted with Hank's buffer solution containing HEPES (5 mM), BSA stabilizer (0.1%) and Rolipram (10 μM), then added to a 384-well white non-transparent plate (cells/well, 10 μl/well), and incubated with the test compound at an appropriate concentration (11 concentrations) for 20 minutes at room temperature. Then, the A2A receptor agonist NECA (final concentration=EC80, which was determined in the same experiment performed earlier) was added to the sample, and the sample was incubated again at 37° C. for 30 minutes.
An inhibition rate (%) was calculated according to the following formula, and an IC50 value was calculated from a concentration-inhibition (%) curve after log conversion.
A curve corresponding to the dose was fitted by using XLfit software and the IC50 was determined.

T1 sequence (P29274 whole entry): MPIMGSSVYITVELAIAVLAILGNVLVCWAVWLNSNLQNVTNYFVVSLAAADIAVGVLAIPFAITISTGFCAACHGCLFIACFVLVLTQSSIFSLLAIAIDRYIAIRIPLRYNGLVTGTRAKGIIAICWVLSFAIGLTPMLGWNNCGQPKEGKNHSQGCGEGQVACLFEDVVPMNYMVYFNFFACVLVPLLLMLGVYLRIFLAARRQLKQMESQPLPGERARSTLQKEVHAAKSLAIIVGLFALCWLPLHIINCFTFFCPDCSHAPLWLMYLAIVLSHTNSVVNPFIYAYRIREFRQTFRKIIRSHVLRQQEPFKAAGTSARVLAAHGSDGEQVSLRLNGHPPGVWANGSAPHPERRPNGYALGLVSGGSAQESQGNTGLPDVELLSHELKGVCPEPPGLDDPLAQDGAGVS

Take `Nc1nc(NCCc2ccc(OCCN3CCC(F)(F)C3)cc2)nc2nc(-c3ccco3)nn12` [Compound 14, N5-(4-(2-(3,3-difluoropyrrolidin-1-yl)ethoxy)phenethyl)-2-(furan-2-yl)-[1,2,4]triazolo[1,5-a][1,3,5]triazine-5,7-diamine]: in data set [1] (PO, dose 10 (mg/kg)), the “Cl—F—pred” value turned out to be 144 mL/min/kg, the F was 17.90%, the AUC(0-t) came out at 1210 ng·h/mL and the Cmax is 574 ng/mL. Further, the half-life in data set [1] (PO, dose 10 (mg/kg)) was 3.05 h. In data set [1] (IV, dose 1 (mg/kg)), the exposure AUC(0-t) was 678 ng·h/mL, the concentration peaked (Cmax) at 1680 ng/mL, the half-life is 0.44 h and the clearance is 24.7 mL/min/kg.

As for `Cn1cnc(-c2ccc(CCNc3nc(N)n4nc(-c5ccco5)nc4n3)cc2)n1` [Compound 52, 2-(furan-2-yl)-N5-(4-(1-methyl-1H-1,2,4-triazol-3-yl)phenethyl)-[1,2,4]triazolo[1,5-a][1,3,5]triazine-5,7-diamine], the AUC(0-t) in data set [2] was 388 ng·h/mL.

For the compound `COCC(COC)Nc1ccc(CCNc2nc(N)n3nc(-c4ccco4)nc3n2)cc1` [Compound 35, N5-(4-(1,3-dimethoxypropane-2-ylamino)phenethyl)-2-(furan-2-yl)-[1,2,4]triazolo[1,5-a][1,3,5]triazine-5,7-diamine], the AUC(0-t) in data set [2] was 1600 ng·h/mL. For the same compound, in data set [3], the 50% inhibitory concentration (IC50) came out at 4.88 nM.

`COCCOCCNc1ccc(CCNc2nc(N)n3nc(-c4ccco4)nc3n2)cc1` [Compound 28, 2-(furan-2-yl)-N5-(4-((2-(2-methoxyethoxy)ethyl)amino)phenethyl)-[1,2,4]triazolo[1,5-a][1,3,5]triazine-5,7-diamine]: in data set [2], the AUC(0-t) worked out at 757 ng·h/mL. In data set [3], the half-inhibitory concentration (IC50) worked out at 6.77 nM.

In turn, `COCCOCCOCCNc1ccc(CCNc2nc(N)n3nc(-c4ccco4)nc3n2)cc1` [Compound 29, 2-(furan-2-yl)-N5-(4-((2-(2-(2-methoxyethoxy)ethoxy)ethyl)amino)phenethyl)-[1,2,4]triazolo[1,5-a][1,3,5]triazine-5,7-diamine] registered an AUC(0-t) in data set [2] of 160 ng·h/mL.

As to `COCCN(CCOC)c1ccc(CCNc2nc(N)n3nc(-c4ccco4)nc3n2)cc1` [Compound 21, N5-(4-(bis(2-methoxyethyl)amino)phenethyl)-2-(furan-2-yl)-[1,2,4]triazolo[1,5-a][1,3,5]triazine-5,7-diamine], the AUC(0-t) in data set [2] was determined as 603 ng·h/mL. Moreover, in data set [3], the half-inhibitory concentration (IC50) stood at 1.62 nM.

In data set [2], `Nc1nc(NCCc2ccc(NC3COC3)cc2)nc2nc(-c3cccc(F)c3)nn12` [Compound 37, 2-(3-fluorophenyl)-N5-(4-(oxetan-3-ylamino)phenethyl)-[1,2,4]triazolo[1,5-a][1,3,5]triazine-5,7-diamine] gave an AUC(0-t) of 1830 ng·h/mL. Further, the concentration for half-maximal inhibition (IC50) in data set [3] amounted to 7.07 nM.

`Nc1nc(NCCc2ccc(-c3nnn(CC(F)(F)F)n3)cc2)nc2nc(-c3ccco3)nn12` [Compound 46, N5-(4-(2-(2,2,2-trifluoroethyl)-2H-tetrazol-5-yl)phenethyl)-2-(furan-2-yl)-[1,2,4]triazolo[1,5-a][1,3,5]triazine-5,7-diamine]: the AUC(0-t) in data set [2] was found to be 739 ng·h/mL.

For the compound `Nc1nc(NCCc2ccc(NC3CCOCC3)cc2)nc2nc(-c3ccco3)nn12` [Compound 18, 2-(furan-2-yl)-N5-(4-((tetrahydro-2H-pyran-4-yl)amino)phenethyl)-[1,2,4]triazolo[1,5-a][1,3,5]triazine-5,7-diamine], the AUC(0-t) in data set [2] is 441 ng·h/mL. The half-maximal inhibitory concentration (IC50) in data set [3] was 3.83 nM.

In the case of `CCOCCNc1ccc(CCNc2nc(N)n3nc(-c4ccco4)nc3n2)cc1` [Compound 30, N5-(4-((2-ethoxyethyl)amino)phenethyl)-2-(furan-2-yl)-[1,2,4]triazolo[1,5-a][1,3,5]triazine-5,7-diamine], the IC50 in data set [3] came to 3.52 nM.

In data set [2], `N#Cc1ccc(CCNc2nc(N)n3nc(-c4ccco4)nc3n2)cc1` [Compound 45, 4-(2-(7-amino-2-(furan-2-yl)-[1,2,4]triazolo[1,5-a][1,3,5]triazine-5-ylamino)ethyl)-benzonitrile] showed an area under the curve AUC(0-t) of 718 ng·h/mL.

Take `CN(C)C(=O)c1ccc(CCNc2nc(N)n3nc(-c4ccco4)nc3n2)cc1` [Compound 38, 4-(2-(7-amino-2-(furan-2-yl)-[1,2,4]triazolo[1,5-a][1,3,5]triazine-5-ylamino)ethyl)-N,N-dimethylbenzamide]: the IC50 in data set [3] was determined as 8.71 nM.

Consider `Nc1nc(NCCc2ccc(-c3ccccn3)cc2)nc2nc(-c3ccco3)nn12` [Compound 48, 2-(furan-2-yl)-N5-(4-(pyridin-2-yl)phenethyl)-[1,2,4]triazolo[1,5-a][1,3,5]triazine-5,7-diamine], for which, in data set [2], the area under the curve AUC(0-t) worked out at 597 ng·h/mL.

For `N#CCn1nnc(-c2ccc(CCNc3nc(N)n4nc(-c5ccco5)nc4n3)cc2)n1` [Compound 44, 2-(5-(4-(2-(7-amino-2-(furan-2-yl)-[1,2,4]triazolo[1,5-a][1,3,5]triazine-5-ylamino)ethyl)-phenyl)-2H-tetrazol-2-yl)acetonitrile], the AUC(0-t) in data set [2] is 341 ng·h/mL. Against the preceding compound, the AUC(0-t) is about 1.8-fold lower.

Turning to `CCCn1nnc(-c2ccc(CCNc3nc(N)n4nc(-c5ccco5)nc4n3)cc2)n1` [Compound 43, N5-(4-(2-propyl-2H-tetrazol-5-yl)phenethyl)-2-(furan-2-yl)-[1,2,4]triazolo[1,5-a][1,3,5]triazine-5,7-diamine], in data set [2], the AUC(0-t) is 315 ng·h/mL.

On to `CC(C)n1nnc(-c2ccc(CCNc3nc(N)n4nc(-c5ccco5)nc4n3)cc2)n1` [Compound 42, N5-(4-(2-isopropyl-2H-tetrazol-5-yl)phenethyl)-2-(furan-2-yl)-[1,2,4]triazolo[1,5-a][1,3,5]triazine-5,7-diamine], for which, in data set [2], the AUC(0-t) amounted to 818 ng·h/mL. The IC50 in data set [3] worked out at 9.08 nM.

In the case of `CC1(C(=O)Nc2ccc(CCNc3nc(N)n4nc(-c5ccco5)nc4n3)cc2)CCOCC1` [Compound 6, N-(4-(2-((7-amino-2-(furan-2-yl)-[1,2,4]triazolo[1,5-a][1,3,5]triazin-5-yl)amino)ethyl)phenyl)-4-methyltetrahydro-2H-pyran-4-carboxamide], the half-inhibitory concentration (IC50) in data set [3] worked out at 9.24 nM.

As to `Nc1nc(NCCc2ccc(-c3ncccn3)cc2)nc2nc(-c3ccco3)nn12` [Compound 51, 2-(furan-2-yl)-N5-(4-(pyrimidin-2-yl)phenethyl)-[1,2,4]triazolo[1,5-a][1,3,5]triazine-5,7-diamine], the AUC(0-t) in data set [2] was determined as 420 ng·h/mL.

On to `Nc1nc(NCCc2ccc(OCCN3CC[C@H](F)C3)cc2)nc2nc(-c3ccco3)nn12` [Compound 16, (S)-N5-(4-(2-(3-fluoropyrrolidin-1-yl)ethoxy)phenethyl)-2-(furan-2-yl)-[1,2,4]triazolo[1,5-a][1,3,5]triazine-5,7-diamine], for which, in data set [1] (PO, dose 10 (mg/kg)), the “Cl—F—pred” value is 233 mL/min/kg, the AUC(0-t) turned out to be 758 ng·h/mL, the Cmax was determined as 258 ng/mL and the half-life was 4.78 h. For the same compound, in data set [1] (IV, dose 1 (mg/kg)), the AUC(0-t) came out at 536 ng·h/mL, the highest concentration (Cmax) is 986 ng/mL, the half-life is 0.61 h and the clearance was 31.5 mL/min/kg.

`COCCN(C)c1ccc(CCNc2nc(N)n3nc(-c4ccco4)nc3n2)cc1` [Compound 25, 2-(furan-2-yl)-N5-(4-((2-methoxyethyl)(methyl)amino)phenethyl)-[1,2,4]triazolo[1,5-a][1,3,5]triazine-5,7-diamine] returned an AUC(0-t) in data set [2] of 142 ng·h/mL.
